Data from patent US20240417412A1, “HETEROCYCLIC COMPOUNDS AND METHODS OF USE” (AMGEN INC., priority 2022, published 2024).
Read-outs that look alike come from different tables or passages of the source.

Columns and labels:
KRAS G12D [1] = biological target: KRAS G12D (Homo sapiens, UniProt P01116, C118A/G12D); experiment: KRAS G12D Coupled Nucleotide Exchange Assay; type: biochemical; conditions: GDP-bound KRAS G12D/C118A, 2 hours pre-incubation, SOS-mediated nucleotide exchange, AlphaScreen
Protocol: The assay plates were then read on a PerkinElmer EnVision Multilabel Reader, using AlphaScreen® technology, and data were analyzed using a 4-parameter logistic model to calculate IC50 values.

KRAS G12D [2] = biological target: KRAS G12D (Homo sapiens, UniProt P01116, G12D); experiment: KRAS G12D TR-FRET Assay; conditions: His-tagged KRAS G12D, biotinylated KRPep-2d, read-out: KRAS G12D Binding IC50
Protocol: The plate was incubated for 30 minutes at room temperature. Biotinylated KRPep-2d substrate (Amgen) was diluted to 20 nM in Assay Buffer and 2 uL was added to all wells and incubated for 1 hour at room temperature. Detection Reagent (0.4 nM LANCE Eu-W1024 Anti-6×His (Perkin Elmer AD0401), 5 nM streptavidin-d2 (Cisbio 610SADLA)) was prepared in Assay Buffer, then 4 μL was added to the plate and incubated for 1 hour at room temperature.

p-ERK (AsPC-1 cells) = experiment: Phospho-ERK1/2 MSD Assay; type: cell-based
Protocol: Sixteen hours prior to compound treatment, AsPC-1 cells were seeded in 96-well cell culture plates at a density of 25,000 cells/well and incubated at 37° C., 5% CO2. A compound dose-response titration was diluted in growth media, added to appropriate wells of a cell culture plate, and then incubated at 37° C., 5% CO2 for 2 hours. […] Phosphorylation of ERK1/2 in compound-treated lysates was assayed using Phospho-ERK1/2 Whole Cell Lysate kits (Meso Scale Discovery K151DWD) according to the manufacturer's protocol. Assay plates were read on a Meso Scale Discovery Sector Imager 6000, and data were analyzed using a 4-parameter logistic model to calculate IC50 values.

[3] = Homo sapiens, ASPC1, 2 h, read-out: 2 h p-ERK (AsPC-1 cells), IC50 (μM), AsPC-1 cells, 2 hours compound treatment
[4] = read-out: 2 h p-ERK (AsPC-1 cells), IC50, AsPC-1 cells, 2 hours compound treatment

KRAS G12D (Homo sapiens, UniProt P01116, C118A/G12D), sequence (P01116 1-169 isoform P01116-2 G12D/C118A): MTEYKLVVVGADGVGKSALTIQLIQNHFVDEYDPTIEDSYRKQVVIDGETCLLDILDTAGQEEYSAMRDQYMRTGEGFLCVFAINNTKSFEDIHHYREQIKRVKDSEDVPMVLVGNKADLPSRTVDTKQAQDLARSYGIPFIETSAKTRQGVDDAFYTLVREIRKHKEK
KRAS G12D (Homo sapiens, UniProt P01116, G12D), sequence (P01116 1-188 isoform P01116-2 G12D): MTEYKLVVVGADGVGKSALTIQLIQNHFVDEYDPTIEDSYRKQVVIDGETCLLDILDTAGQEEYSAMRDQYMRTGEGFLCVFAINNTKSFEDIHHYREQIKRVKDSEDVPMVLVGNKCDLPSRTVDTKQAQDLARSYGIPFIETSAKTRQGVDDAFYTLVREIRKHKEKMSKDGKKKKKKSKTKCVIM

SMILES | IC50 (KRAS G12D [1]) [nM] | IC50 (KRAS G12D [2]) [nM] | IC50 (p-ERK (AsPC-1 cells); [3]) [µM] | IC50 (p-ERK (AsPC-1 cells); [4]) [µM]
CCc1c(F)ccc2cc(O)cc(-c3ncc4c(N5CC(O)CC6(CC6)C5)nc(OC[C@@]56CCCN5C[C@H](F)C6)nc4c3F)c12 (single isomer, unassigned) [Example 3] | 2 | 1 | 0.034 | –
CCc1c(F)ccc2cc(O)cc(-c3ncc4c(N5CC(O)CC6(CC6)C5)nc(OC[C@@]56CCCN5C[C@H](F)C6)nc4c3F)c12 (single isomer, unassigned) [Example 4] | 3 | 2 | – | –
CCc1c(F)ccc2cc(O)cc(-c3ncc4c(N5CCCC6(CNC(=O)C6)C5)nc(OC[C@@]56CCCN5C[C@H](F)C6)nc4c3F)c12 (single isomer, unassigned) [Example 7] | 8 | 3 | – | –
CCc1c(F)ccc2cc(O)cc(-c3ncc4c(N5CCCC6(CNC(=O)C6)C5)nc(OC[C@@]56CCCN5C[C@H](F)C6)nc4c3F)c12 (single isomer, unassigned) [Example 8] | 4 | 2 | 0.252 | –
CCc1c(F)ccc2cc(O)cc(-c3ncc4c(N5CCCC6(CC(=O)N6)C5)nc(OC[C@@]56CCCN5C[C@H](F)C6)nc4c3F)c12 (single isomer, unassigned) [Example 9] | 5 | 2 | – | 1.99
CCc1c(F)ccc2cc(O)cc(-c3ncc4c(N5CCCC6(CC(=O)N6)C5)nc(OC[C@@]56CCCN5C[C@H](F)C6)nc4c3F)c12 (single isomer, unassigned) [Example 10] | 2 | 1 | – | 0.044
Oc1cc(-c2ncc3c(N4CCCC5(CC(O)C5)C4)nc(OC[C@@]45CCCN4C[C@H](F)C5)nc3c2F)c2c(F)c(F)ccc2c1 (single isomer, unassigned) [Example 11] | 2 | 2 | 0.119 | –
Oc1cc(-c2ncc3c(N4CCCC5(CC(O)C5)C4)nc(OC[C@@]45CCCN4C[C@H](F)C5)nc3c2F)c2c(F)c(F)ccc2c1 (single isomer, unassigned) [Example 12] | 2 | 2 | – | 0.121
CCc1cccc2cc(O)cc(-c3ncc4c(N5CCCC6(CC(O)C6)C5)nc(OC[C@@]56CCCN5C[C@H](F)C6)nc4c3F)c12 (single isomer, unassigned) [Example 13] | 1 | 2 | 0.022 | –
CCc1c(F)ccc2cc(O)cc(-c3ncc4c(N5CCCC6(CCO6)C5)nc(OC[C@@]56CCCN5C[C@H](F)C6)nc4c3F)c12 (single isomer, unassigned) [Example 21] | – | – | – | 0.003
CCc1c(F)ccc2cc(O)cc(-c3ncc4c(N5CCCC6(CCO6)C5)nc(OC[C@@]56CCCN5C[C@H](F)C6)nc4c3F)c12 (single isomer, unassigned) [Example 22] | – | – | – | 0.252
CCc1c(F)ccc2cc(O)cc(-c3ncc4c(N5CCCC6(CNC6=O)C5)nc(OC[C@@]56CCCN5C[C@H](F)C6)nc4c3F)c12 (single isomer, unassigned) [Example 46] | 65 | 59 | – | –
CCc1c(F)ccc2cc(O)cc(-c3ncc4c(N5CCCC6(CCC6O)C5)nc(OC[C@@]56CCCN5C[C@H](F)C6)nc4c3F)c12 (single isomer, unassigned) [Example 48] | 54 | 36 | – | –
CCc1c(F)ccc2cc(O)cc(-c3ncc4c(N5CCCC6(CC(O)C6)C5)nc(OC[C@@]56CCCN5C[C@H](F)C6)nc4c3F)c12 (single isomer, unassigned) [Example 54] | – | – | – | 0.008
CCc1c(F)ccc2cc(O)cc(-c3ncc4c(N5CCCC6(CC(O)C6)C5)nc(OC[C@@]56CCCN5C[C@H](F)C6)nc4c3F)c12 (single isomer, unassigned) [Example 55] | – | – | – | 0.078
CCc1c(F)ccc2cc(O)cc(-c3ncc4c(N5CCCC6(CCO6)C5)nc(OC[C@@]56CCCN5C[C@H](F)C6)nc4c3C)c12 (single isomer, unassigned) [Example 62] | 42 | 68 | – | –
CCc1c(F)ccc2cccc(-c3ncc4c(N5CCCC6(CNC(=O)O6)C5)nc(OC[C@@]56CCCN5C[C@H](F)C6)nc4c3F)c12 (single isomer, unassigned) [Example 64] | 129 | 305 | – | –
CCc1c(F)ccc2cc(O)cc(-c3ncc4c(N5CCCC6(CCC(=O)O6)C5)nc(OC[C@@]56CCCN5C[C@H](F)C6)nc4c3F)c12 (single isomer, unassigned) [Example 65] | 42 | 74 | – | –
CCc1c(F)ccc2cc(O)cc(-c3ncc4c(N5CCOCC6(COC6)C5)nc(OCC56CCCN5C[C@H](F)C6)nc4c3F)c12 (stereo in doubt) [Example 50, 5-Ethyl-6-fluoro-4-(8-fluoro-2-(((2R,7aS)-2-fluorotetrahydro-1H-pyrrolizin-7a(5H)-yl)methoxy)-4-(2,6-dioxa-9-azaspiro[3.6]decan-9-yl)pyrido[4,3-d]pyrimidin-7-yl)naphthalen-2-ol] | 50 | 56 | – | –
CCc1c(F)ccc2cc(O)cc(-c3ncc4c(N5CCC6(CCCS6(=O)=O)C5)nc(OCC56CCCN5C[C@H](F)C6)nc4c3F)c12 (stereo in doubt) [Example 51, 7-(7-(8-Ethyl-7-fluoro-3-hydroxynaphthalen-1-yl)-8-fluoro-2-(((2R,7aS)-2-fluorotetrahydro-1H-pyrrolizin-7a(5H)-yl)methoxy)pyrido[4,3-d]pyrimidin-4-yl)-1-thia-7-azaspiro[4.4]nonane 1,1-dioxide] | 13 | 17 | – | –
CCc1c(F)ccc2cc(O)cc(-c3ncc4c(N5CCCC6(CCN6)C5)nc(OC[C@@]56CCCN5C[C@H](F)C6)nc4c3F)c12 (stereo partly drawn) [Example 5, 5-Ethyl-6-fluoro-4-(8-fluoro-2-(((2R,7aS)-2-fluorotetrahydro-1H-pyrrolizin-7a(5H)-yl)methoxy)-4-(1,6-diazaspiro[3.5]nonan-6-yl)pyrido[4,3-d]pyrimidin-7-yl)naphthalen-2-ol] | 17 | 40 | – | –
CCc1c(F)ccc2cc(O)cc(-c3ncc4c(N5CCCC6(COC6)C5)nc(OC[C@@]56CCCN5C[C@H](F)C6)nc4c3F)c12 [Example 20, 5-Ethyl-6-fluoro-4-(8-fluoro-2-(((2R,7aS)-2-fluorotetrahydro-1H-pyrrolizin-7a(5H)-yl)methoxy)-4-(2-oxa-6-azaspiro[3.5]nonan-6-yl)pyrido[4,3-d]pyrimidin-7-yl)naphthalen-2-ol] | 3 | 2 | – | –
CCc1c(F)ccc2cc(O)cc(-c3ncc4c(N5CCOC6(CCC6)C5)nc(OC[C@@]56CCCN5C[C@H](F)C6)nc4c3F)c12 [Example 31, 5-Ethyl-6-fluoro-4-(8-fluoro-2-(((2R,7aS)-2-fluorotetrahydro-1H-pyrrolizin-7a(5H)-yl)methoxy)-4-(5-oxa-8-azaspiro[3.5]nonan-8-yl)pyrido[4,3-d]pyrimidin-7-yl)naphthalen-2-ol] | 28 | 27 | – | –
CCc1c(F)ccc2cccc(-c3ncc4c(N5CCCC6(CNC6=O)C5)nc(OC[C@@]56CCCN5C[C@H](F)C6)nc4c3F)c12 (stereo partly drawn) [Example 32, 6-(7-(8-Ethyl-7-fluoronaphthalen-1-yl)-8-fluoro-2-(((2R,7aS)-2-fluorotetrahydro-1H-pyrrolizin-7a(5H)-yl)methoxy)pyrido[4,3-d]pyrimidin-4-yl)-2,6-diazaspiro[3.5]nonan-1-one] | 5 | 4 | – | –
CCc1c(F)ccc2cc(O)cc(-c3ncc4c(N5CCCC6(CNC6)C5)nc(OC[C@@]56CCCN5C[C@H](F)C6)nc4c3F)c12 [Example 38, 5-Ethyl-6-fluoro-4-(8-fluoro-2-(((2R,7aS)-2-fluorotetrahydro-1H-pyrrolizin-7a(5H)-yl)methoxy)-4-(2,6-diazaspiro[3.5]nonan-6-yl)pyrido[4,3-d]pyrimidin-7-yl)naphthalen-2-ol] | 33 | 31 | – | –
CCc1c(F)ccc2cc(O)cc(-c3ncc4c(N5CCCC6(CCS6(=O)=O)C5)nc(OC[C@@]56CCCN5C[C@H](F)C6)nc4c3F)c12 (some centres unmarked) [Example 43] | 8 | 12 | – | –
CCc1c(F)ccc2cc(O)cc(-c3ncc4c(N5CCCC6(CCNC6=O)C5)nc(OC[C@@]56CCCN5C[C@H](F)C6)nc4c3F)c12 (stereo partly drawn) [Example 47, 7-(7-(8-Ethyl-7-fluoro-3-hydroxynaphthalen-1-yl)-8-fluoro-2-(((2R,7aS)-2-fluorotetrahydro-1H-pyrrolizin-7a(5H)-yl)methoxy)pyrido[4,3-d]pyrimidin-4-yl)-2,7-diazaspir[4.5]decan-1-one] | 24 | 51 | – | –
CCc1c(F)ccc2cc(O)cc(-c3ncc4c(N5CCCC6(C5)CN(S(C)(=O)=O)C6)nc(OC[C@@]56CCCN5C[C@H](F)C6)nc4c3F)c12 [Example 52, 5-Ethyl-6-fluoro-4-(8-fluoro-2-(((2R,7aS)-2-fluorotetrahydro-1H-pyrrolizin-7a(5H)-yl)methoxy)-4-(2-(methylsulfonyl)-2,6-diazaspiro[3.5]nonan-6-yl)pyrido[4,3-d]pyrimidin-7-yl)naphthalen-2-ol] | 6 | 6 | – | –
